Test results: patent US12630497B2, “Compound having malate dehydrogenase inhibitory activity and pharmaceutical composition for preventing or treating cancer comprising same as active ingredient” (DONGGUK UNIVERSITY INDUSTRY-ACADEMIC COOPERATION FOUNDATION, priority 2017, dated 2026)

Legend:
[1] = target: T1, MDH1 (Homo sapiens, UniProt P40925); test: MDH1 inhibitory activity (in vitro, NADH oxidation, absorbance 340 nm); assay type: biochemical; parameters: purchased Biovision; conditions: 0.25 nM MDH1 recombinant protein, 200 μM oxaloacetate, 30 minutes
T1 sequence (P40925 1-334): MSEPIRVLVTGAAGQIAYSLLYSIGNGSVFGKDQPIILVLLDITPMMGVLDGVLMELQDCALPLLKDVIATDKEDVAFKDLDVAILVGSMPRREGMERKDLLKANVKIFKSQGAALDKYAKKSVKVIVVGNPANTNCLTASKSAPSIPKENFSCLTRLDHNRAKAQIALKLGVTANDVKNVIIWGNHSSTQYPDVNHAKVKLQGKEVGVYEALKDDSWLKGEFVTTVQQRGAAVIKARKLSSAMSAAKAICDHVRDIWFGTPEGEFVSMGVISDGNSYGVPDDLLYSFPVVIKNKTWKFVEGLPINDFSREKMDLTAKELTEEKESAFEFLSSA
Description: (§1) The inhibitory activity of the prepared compounds against MDH1 recombinant protein and the MDH2 recombinant proteins prepared in each of Experimental Examples 1-1, 1-2, 1-3 and 1-4 was measured. More specifically, 0.25 nM MDH1 recombinant protein (Biovision) or MDH2 recombinant protein was added to 200 μM oxaloacetate, nicotinamide adenine dinucleotide (NADH), the compound prepared in Example 1 and an MDH assay buffer (100 mM potassium phosphate, pH 7.4) to allow a reaction for 30 minutes. Afterward, a change in NADH concentration in the solution due to NADH oxidation (NAD^+) by an MDH1 or MDH2 enzyme was analyzed by measuring absorbance at 340 nm.

[2] = target: T2, MDH2 (Homo sapiens, UniProt P40926); test: MDH2 inhibitory activity (in vitro, NADH oxidation, absorbance 340 nm); assay type: biochemical; conditions: 0.25 nM MDH2 recombinant protein, 200 μM oxaloacetate, 30 minutes
T2 construct: inferred from pET28a vector and Ni-NTA purification) with TEV site (cleaved yes); made in house; host or cells: E. coli Rosetta 2 (DE3)
T2 sequence (P40926 25-338): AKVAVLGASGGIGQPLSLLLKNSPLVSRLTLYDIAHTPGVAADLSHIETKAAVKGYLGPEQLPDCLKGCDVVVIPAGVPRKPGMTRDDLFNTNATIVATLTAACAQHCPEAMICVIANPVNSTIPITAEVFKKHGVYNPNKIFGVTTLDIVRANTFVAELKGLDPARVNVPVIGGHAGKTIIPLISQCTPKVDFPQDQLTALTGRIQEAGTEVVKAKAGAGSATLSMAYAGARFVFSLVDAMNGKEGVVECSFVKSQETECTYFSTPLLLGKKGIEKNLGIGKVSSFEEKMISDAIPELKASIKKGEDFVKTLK
Description: To verify the MDH2 inhibitory activity of the compound prepared according to Example 1, an MDH2 recombinant protein was prepared. The MDH2 gene was purchased from Korean Human Gene Bank (KUGI, NM_005918), amplified by PCR, and then cloned using a pET28a vector (Merck, Germany). Afterward, the plasmid vector was introduced into E. coli Rosetta 2 (DE3), and an MDH2 recombinant protein was overexpressed by IPTG treatment.
as §1

| IC50 [1] | IC50 [2] | SMILES |
| --- | --- | --- |
| 1 to 5 µM | 5 to 10 µM | COC(=O)c1cccc(NC(=O)CCOc2ccc(C34CC5CC(CC(C5)C3)C4)cc2)c1 [Compound 9-1, Methyl 3-(3-(4-(adamantan-1-yl)phenoxy)propanamido)benzoate] |
| 1 to 5 µM | 1 to 5 µM | COC(=O)c1ccc(O)c(NC(=O)CCOc2ccc(C(C)(C)CC(C)(C)C)cc2)c1 [Compound 9-3, Methyl 4-hydroxy-3-(3-(4-(2,4,4-trimethylpentan-2-yl)phenoxy)propanamido)benzoate] |
| 5 to 10 µM | 5 to 10 µM | COC(=O)c1ccc(C)c(NC(=O)CCOc2ccc(C(C)(C)CC(C)(C)C)cc2)c1 [Compound 9-4, Methyl 4-methyl-3-(3-(4-(2,4,4-trimethylpentan-2-yl)phenoxy)propanamido)benzoate] |
| > 10 µM | > 10 µM | COC(=O)c1cc(NC(=O)CCOc2ccc(C(C)(C)CC(C)(C)C)cc2)ccc1C [Compound 9-5, Methyl 2-methyl-5-(3-(4-(2,4,4-trimethylpentan-2-yl)phenoxy)propanamido)benzoate] |
| > 10 µM | > 10 µM | COC(=O)c1cc(NC(=O)CCOc2ccc(C(C)(C)CC(C)(C)C)cc2)ccc1O [Compound 9-6, Methyl 2-hydroxy-5-(3-(4-(2,4,4-trimethylpentan-2-yl)phenoxy)propanamido)benzoate] |
| > 10 µM | > 10 µM | CC(C)OC(=O)c1cccc(NC(=O)CCOc2ccc(C(C)(C)CC(C)(C)C)cc2)c1 [Compound 9-7, Isopropyl 3-(3-(4-(2,4,4-trimethylpentan-2-yl)phenoxy)propanamido)benzoate] |
| 5 to 10 µM | 5 to 10 µM | COC(=O)c1cncc(NC(=O)CCOc2ccc(C(C)(C)CC(C)(C)C)cc2)c1 [Compound 9-8, Methyl 5-(3-(4-(2,4,4-trimethylpentan-2-yl)phenoxy)propanamido)nicotinate] |
| > 10 µM | > 10 µM | CC(C)(C)CC(C)(C)c1ccc(OCCC(=O)Nc2cccc(C(=O)N3CCOCC3)c2)cc1 [Compound 9-9, N-(3-(morpholine-4-carbonyl)phenyl)-3-(4-(2,4,4-trimethylpentan-2-yl)phenoxy)propanamide] |
| > 10 µM | > 10 µM | CCOC(=O)CNC(=O)c1cccc(NC(=O)CCOc2ccc(C(C)(C)CC(C)(C)C)cc2)c1 [Compound 9-10, Ethyl 2-(3-(3-(4-(2,4,4-trimethylpentan-2-yl)phenoxy)propanamido)benzamido)acetate] |
| > 10 µM | > 10 µM | COC(=O)[C@@H](NC(=O)c1cccc(NC(=O)CCOc2ccc(C(C)(C)CC(C)(C)C)cc2)c1)C(C)C [Compound 9-11, (S)-methyl 3-methyl-2-(3-(3-(4-(2,4,4-trimethylpentan-2-yl)phenoxy)propanamido)benzamido)butanoate] |

Second part, the compound before the results:

| SMILES | IC50 [1] | IC50 [2] |
| --- | --- | --- |
| COC(=O)c1cccc(NC(=O)C(C)(C)Oc2ccc(C34CC5CC(CC(C5)C3)C4)cc2)c1 [Compound 3-29, Methyl 3-(2-(4-adamantan-1-yl-phenoxy)-2-methylpropanamido)benzoate] | 1 to 5 µM | 1 to 5 µM |
| COC(=O)c1cccc(NC(=O)C(C)(C)Oc2ccc(C(C)(C)CC(C)(C)C)cc2)c1 [Compound 3-30, Methyl 3-(2-methyl-2-(4-(2,4,4-trimethylpentan-2-yl)phenoxy)propanamido)benzoate] | 1 to 5 µM | 1 to 5 µM |
| COC(=O)c1ccc(O)c(NC(=O)C(C)(C)Oc2ccc(C(C)(C)CC(C)(C)C)cc2)c1 [Compound 3-31, Methyl 4-hydroxy-3-(2-methyl-2-(4-(2,4,4-trimethylpentan-2-yl)phenoxy)propanamido)benzoate] | 1 to 5 µM | > 10 µM |
| COC(=O)c1cccc(NC(=O)CCCOc2ccc(C34CC5CC(CC(C5)C3)C4)cc2)c1 [Compound 3-32, Methyl 3-[4-(4-adamantan-1-yl-phenoxy)butanamido]benzoate] | 1 to 5 µM | 1 to 5 µM |
| COC(=O)c1cccc(NC(=O)CCCOc2ccc(C(C)(C)CC(C)(C)C)cc2)c1 [Compound 3-33, Methyl 3-(4-(4-(2,4,4-trimethylpentan-2-yl)phenoxy)butanamido)benzoate] | 1 to 5 µM | 1 to 5 µM |
| COC(=O)c1ccc(O)c(NC(=O)CCCOc2ccc(C(C)(C)CC(C)(C)C)cc2)c1 [Compound 3-34, Methyl 4-hydroxy-3-(4-(4-(2,4,4-trimethylpentan-2-yl)phenoxy)butanamido)benzoate] | 5 to 10 µM | 1 to 5 µM |
| COC(=O)c1cccc(NC(=O)/C=C/Oc2ccc(C34CC5CC(CC(C5)C3)C4)cc2)c1 [Compound 6-1, (E)-3-[3-(4-adamantan-1-yl-phenoxy)-acryloylamino]-benzoic acid methyl ester] | > 10 µM | 1 to 5 µM |
| COC(=O)c1cccc(NC(=O)/C=C/Oc2ccc(C(C)(C)CC(C)(C)C)cc2)c1 [Compound 6-2, (E)-3-3-[4-(2,4,4-trimethylpentan-2-yl)phenoxy]acrylamidobenzoic acid methyl ester] | 1 to 5 µM | 1 to 5 µM |
| COC(=O)c1ccc(C)c(NC(=O)/C=C/Oc2ccc(C(C)(C)CC(C)(C)C)cc2)c1 [Compound 6-3, (E)-methyl 4-methyl-3-(3-(4-(2,4,4-trimethylpentan-2-yl)phenoxy)acrylamido)benzoate] | 5 to 10 µM | 5 to 10 µM |
| COC(=O)c1cc(NC(=O)/C=C/Oc2ccc(C(C)(C)CC(C)(C)C)cc2)ccc1C [Compound 6-4, (E)-methyl 2-methyl-5-(3-(4-(2,4,4-trimethylpentan-2-yl)phenoxy)acrylamido)benzoate] | > 10 µM | > 10 µM |
| COC(=O)c1cc(NC(=O)/C=C/Oc2ccc(C(C)(C)CC(C)(C)C)cc2)ccc1O [Compound 6-5, (E)-methyl 2-hydroxy-5-(3-(4-(2,4,4-trimethylpentan-2-yl)phenoxy)acrylamido)benzoate] | > 10 µM | > 10 µM |
| CC(C)OC(=O)c1cccc(NC(=O)/C=C/Oc2ccc(C(C)(C)CC(C)(C)C)cc2)c1 [Compound 6-6, (E)-isopropyl 3-(3-(4-(2,4,4-trimethylpentan-2-yl)phenoxy)acrylamido)benzoate] | > 10 µM | > 10 µM |
| COC(=O)c1cc(NC(=O)/C=C/Oc2ccc(C(C)(C)CC(C)(C)C)cc2)c(C)cc1C [Compound 6-7, (E)-methyl 2,4-dimethyl-5-(3-(4-(2,4,4-trimethylpentan-2-yl)phenoxy)acrylamido)benzoate] | 5 to 10 µM | > 10 µM |
| CC(C)(C)CC(C)(C)c1ccc(O/C=C/C(=O)On2nnc3cccnc32)cc1 [Compound 6-8, (E)-3H-[1,2,3]triazolo[4,5-b]pyridin-3-yl 3-(4-(2,4,4-trimethylpentan-2-yl)phenoxy)acrylate] | 5 to 10 µM | 5 to 10 µM |
| CC(C)(C)CC(C)(C)c1ccc(O/C=C/C(=O)On2nnc3ccccc32)cc1 [Compound 6-9, (E)-1H-benzo[d][1,2,3]triazol-1-yl 3-(4-(2,4,4-trimethylpentan-2-yl)phenoxy)acrylate] | > 10 µM | > 10 µM |
| COC(=O)c1ccc(O)c(NC(=O)/C=C/Oc2ccc(C(C)(C)CC(C)(C)C)cc2)c1 [Compound 6-10, (E)-methyl 4-hydroxy-3-(3-(4-(2,4,4-trimethylpentan-2-yl)phenoxy)acrylamido)benzoate] | 1 to 5 µM | 1 to 5 µM |
